The text below walks through data of ChEMBL document CHEMBL4373715, “Discovery and Biological Evaluations of Halogenated 2,4-Diphenyl Indeno[1,2-b]pyridinol Derivatives as Potent Topoisomerase IIα-Targeted Chemotherapeutic Agents for Breast Cancer” (J Med Chem, 2019).

In one assay the test system is HeLa. The experiment in a line: Antiproliferative activity against human HeLa cells measured after 72 hrs by EZ-Cytox assay. In kind it is functional, cell-based.
A further assay has as its system DU-145. The experiment in a line: Antiproliferative activity against human DU145 cells measured after 72 hrs by EZ-Cytox assay. In kind it is functional, cell-based. Particulars: DU-145, 72 h.
In the next assay the test system is T47D. The experiment in a line: Antiproliferative activity against human T47D cells measured after 72 hrs by EZ-Cytox assay. In kind it is functional, cell-based.
A further assay relates to HCT-15. The experiment in a line: Antiproliferative activity against human HCT15 cells measured after 72 hrs by EZ-Cytox assay. It counts as functional, cell-based. Particulars: HCT-15, 72 h.
Assay [1] concerns the target DNA topoisomerase 2-alpha (Homo sapiens) (UniProt P11388). The experiment in a line: Inhibition of recombinant human topoisomerase 2alpha-mediated relaxation of supercoiled pBR322 DNA at 100 uM measured after 30 mins by ethidium bromide staining based agarose gel electrophoresis relative to control.
The target is the same in assay [2]. In words: Inhibition of recombinant human topoisomerase 2alpha-mediated relaxation of supercoiled pBR322 DNA at 20 uM measured after 30 mins by ethidium bromide staining based agarose gel electrophoresis relative to control.
The target in assay [3] is T1, DNA topoisomerase 1 (Homo sapiens) (UniProt P11387).
T1 sequence (whole entry): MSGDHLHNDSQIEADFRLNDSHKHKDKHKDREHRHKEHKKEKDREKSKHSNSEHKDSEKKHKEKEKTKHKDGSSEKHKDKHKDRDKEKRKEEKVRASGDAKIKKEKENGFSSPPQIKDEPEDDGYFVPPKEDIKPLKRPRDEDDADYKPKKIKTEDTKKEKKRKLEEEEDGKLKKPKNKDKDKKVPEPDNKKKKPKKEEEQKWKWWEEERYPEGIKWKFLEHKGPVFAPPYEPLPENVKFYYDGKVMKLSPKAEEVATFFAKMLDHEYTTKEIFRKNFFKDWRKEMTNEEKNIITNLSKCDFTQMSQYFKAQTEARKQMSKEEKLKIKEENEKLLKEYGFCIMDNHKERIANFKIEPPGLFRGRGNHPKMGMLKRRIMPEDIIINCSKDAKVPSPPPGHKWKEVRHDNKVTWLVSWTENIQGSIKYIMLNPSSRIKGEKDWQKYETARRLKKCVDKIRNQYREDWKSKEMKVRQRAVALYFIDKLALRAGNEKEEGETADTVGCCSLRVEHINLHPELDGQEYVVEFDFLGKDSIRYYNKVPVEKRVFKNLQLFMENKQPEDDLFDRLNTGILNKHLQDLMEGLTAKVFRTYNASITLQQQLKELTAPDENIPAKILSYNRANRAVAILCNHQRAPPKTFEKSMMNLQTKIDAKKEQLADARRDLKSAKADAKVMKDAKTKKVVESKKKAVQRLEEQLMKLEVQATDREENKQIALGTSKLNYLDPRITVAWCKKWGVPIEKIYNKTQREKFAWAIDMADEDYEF
The experiment in a line: Inhibition of recombinant human topoisomerase 1-mediated relaxation of supercoiled pBR322 DNA at 100 uM measured after 30 mins by ethidium bromide staining based agarose gel electrophoresis relative to control.

DNA topoisomerase 2-alpha (Homo sapiens), sequence (P11388 whole entry): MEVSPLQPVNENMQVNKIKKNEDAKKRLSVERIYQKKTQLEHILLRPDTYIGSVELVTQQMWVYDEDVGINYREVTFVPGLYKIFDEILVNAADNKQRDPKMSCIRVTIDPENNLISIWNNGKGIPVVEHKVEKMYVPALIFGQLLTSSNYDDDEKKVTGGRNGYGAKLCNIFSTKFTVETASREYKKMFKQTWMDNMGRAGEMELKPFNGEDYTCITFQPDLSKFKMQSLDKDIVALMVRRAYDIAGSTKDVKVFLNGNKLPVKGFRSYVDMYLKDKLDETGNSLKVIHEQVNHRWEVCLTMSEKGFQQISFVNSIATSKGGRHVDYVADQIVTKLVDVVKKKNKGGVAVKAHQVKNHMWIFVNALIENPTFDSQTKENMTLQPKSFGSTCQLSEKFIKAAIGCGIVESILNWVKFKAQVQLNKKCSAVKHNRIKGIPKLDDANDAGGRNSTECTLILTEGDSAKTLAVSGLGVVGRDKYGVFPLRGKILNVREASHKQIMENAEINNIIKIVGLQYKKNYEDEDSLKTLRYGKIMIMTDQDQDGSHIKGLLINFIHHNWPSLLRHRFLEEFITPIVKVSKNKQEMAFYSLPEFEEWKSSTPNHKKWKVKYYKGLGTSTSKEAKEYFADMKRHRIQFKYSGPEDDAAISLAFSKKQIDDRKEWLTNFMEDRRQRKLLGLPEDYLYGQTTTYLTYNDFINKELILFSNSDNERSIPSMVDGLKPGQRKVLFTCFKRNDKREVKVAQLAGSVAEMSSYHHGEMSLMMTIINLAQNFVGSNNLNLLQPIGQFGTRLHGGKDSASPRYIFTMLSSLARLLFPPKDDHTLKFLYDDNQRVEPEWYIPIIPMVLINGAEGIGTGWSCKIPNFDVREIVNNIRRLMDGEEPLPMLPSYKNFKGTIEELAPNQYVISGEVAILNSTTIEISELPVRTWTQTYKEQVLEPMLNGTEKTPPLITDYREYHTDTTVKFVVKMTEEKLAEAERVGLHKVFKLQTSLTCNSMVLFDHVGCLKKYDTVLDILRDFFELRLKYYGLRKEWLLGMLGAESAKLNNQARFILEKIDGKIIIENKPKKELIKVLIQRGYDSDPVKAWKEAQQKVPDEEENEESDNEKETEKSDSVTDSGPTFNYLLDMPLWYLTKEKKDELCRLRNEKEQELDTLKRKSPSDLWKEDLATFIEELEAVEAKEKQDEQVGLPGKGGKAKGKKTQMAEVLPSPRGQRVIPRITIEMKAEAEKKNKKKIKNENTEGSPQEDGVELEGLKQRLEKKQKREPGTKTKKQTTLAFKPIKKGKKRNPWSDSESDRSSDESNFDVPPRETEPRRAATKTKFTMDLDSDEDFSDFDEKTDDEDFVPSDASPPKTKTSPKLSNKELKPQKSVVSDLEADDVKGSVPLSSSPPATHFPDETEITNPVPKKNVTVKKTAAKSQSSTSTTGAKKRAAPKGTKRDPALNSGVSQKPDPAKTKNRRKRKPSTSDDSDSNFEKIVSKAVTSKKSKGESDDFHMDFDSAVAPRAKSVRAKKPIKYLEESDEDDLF

Consider `Oc1ccc2c(c1)Cc1c(-c3ccccc3O)cc(-c3ccccc3C(F)(F)F)nc1-2`, for which the IC50 (in general, the concentration at which inhibition is half-maximal) with HeLa stood at 2.92 µM; with DU-145, 2.02 µM; in the assay on T47D it was 1.14 µM; with HCT-15 it was 1.61 µM. Further, the inhibition (in general, the share of the control response that was lost under treatment) was found to be 90.2% in assay [1], 3.7% in assay [2] and 1.6% in assay [3].

For the compound `Oc1ccccc1-c1cc(-c2cccc(C(F)(F)F)c2)nc2c1Cc1c(O)cccc1-2`, the IC50 came to 4.25 µM in the assay on HeLa, 1.87 µM in the assay with DU-145, 0.77 µM in the assay with T47D and 3.34 µM in the assay with HCT-15. Moreover, the figures for the inhibition in assay [1], in assay [2] and in assay [3] were 94.2%, 5.3% and 0.3%, respectively.

In the case of `Oc1cccc(-c2cc(-c3ccccc3)nc3c2Cc2cc(O)ccc2-3)c1`, the half-maximal inhibitory concentration (IC50) with HeLa was 5.64 µM; in the assay with DU-145, 0.6 µM; in the assay with T47D, 2.66 µM; in the assay with HCT-15 it was 1.48 µM. Also, the results for the inhibition in assay [1], in assay [2] and in assay [3] were 96.8%, 0% and 20%, respectively.

For the compound `Oc1ccc(-c2cc(-c3ccccc3)c3c(n2)-c2ccc(O)cc2C3)cc1`, the IC50 in the assay with HeLa is 2.67 µM; with DU-145, 0.71 µM; with T47D, 0.73 µM; in the assay on HCT-15, 1.27 µM. Also, the inhibition worked out at 42.8% in assay [1], 8.3% in assay [2] and 8.8% in assay [3].

In the case of `Oc1cccc(-c2cc(-c3cccc(F)c3)nc3c2Cc2c(O)cccc2-3)c1`, the IC50 was 7.04 µM in the assay on HeLa, 2.37 µM in the assay on DU-145, 0.89 µM with T47D and 4.9 µM in the assay on HCT-15. For the same compound, the inhibition turned out to be 43.2% in assay [1], 5.6% in assay [2] and 9.8% in assay [3].

As for `Oc1cccc(-c2cc(-c3ccc(Cl)cc3)nc3c2Cc2ccc(O)cc2-3)c1`, the half-maximal inhibitory concentration (IC50) in the assay with HeLa stood at 1.73 µM; in the assay on DU-145, 4.43 µM; in the assay with T47D, 3.5 µM; with HCT-15 it was 0.86 µM. In addition, the inhibition was 87.8% in assay [1], 51.9% in assay [2] and 16.7% in assay [3].

Turning to `Oc1ccccc1-c1cc(-c2ccccc2)nc2c1Cc1c(O)cccc1-2`, the 50% inhibitory concentration (IC50) in the assay with HeLa is 6.32 µM; in the assay with DU-145, 0.8 µM; with T47D it was 2.33 µM; with HCT-15, 3.47 µM. In addition, the inhibition came to 78.5% in assay [1], 0% in assay [2] and 0% in assay [3].

Turning to `Oc1ccc(-c2cc(-c3ccc(Cl)cc3)c3c(n2)-c2cc(O)ccc2C3)cc1`, the IC50 in the assay with HeLa was determined as 10.1 µM; with DU-145, 1.74 µM; in the assay with T47D it was 2.67 µM; with HCT-15, 12 µM. Also, the inhibition in assay [1] was 95.3%; in assay [2], 10.8%; in assay [3] it was 14.2%.

On to `Oc1ccc(-c2cc(-c3ccc(Cl)cc3)c3c(n2)-c2c(O)cccc2C3)cc1`, for which the IC50 in the assay with HeLa, in the assay with DU-145, in the assay on T47D and in the assay with HCT-15 was above 50 µM throughout. Besides, the inhibition is 96.8% in assay [1], 9.3% in assay [2] and 0% in assay [3].

Consider `Oc1ccc(-c2cc(-c3ccccc3Cl)c3c(n2)-c2c(O)cccc2C3)cc1`, for which the IC50 in the assay with HeLa is 2.79 µM; in the assay on DU-145, 0.86 µM; with T47D, 0.96 µM; in the assay with HCT-15, 1.05 µM. Besides, the values for the inhibition in assay [1], in assay [2] and in assay [3] were 66.9%, 0.8% and 10.3%, respectively.

As to `Oc1ccc(-c2cc(-c3ccc(C(F)(F)F)cc3)nc3c2Cc2cccc(O)c2-3)cc1`, the 50% inhibitory concentration (IC50) in the assay with HeLa is above 50 µM; in the assay with DU-145, 13.2 µM; in the assay with T47D, above 50 µM; in the assay with HCT-15, above 50 µM. Moreover, the inhibition in assay [1] worked out at 82.3%; in assay [2] it was 0%; in assay [3], 18.5%.

Consider `Oc1ccc2c(c1)-c1nc(-c3ccccc3)cc(-c3ccccc3O)c1C2`, for which the IC50 in the assay on HeLa worked out at 3.74 µM; in the assay on DU-145, 0.15 µM; with T47D, 2.33 µM; in the assay on HCT-15 it was 3.01 µM. Besides, the values for the inhibition in assay [1], in assay [2] and in assay [3] were 97.4%, 0% and 0%, respectively.

Take `Oc1ccccc1-c1cc(-c2ccc(Cl)cc2)c2c(n1)-c1c(O)cccc1C2`: the IC50 was above 50 µM in the assay with HeLa, 1.95 µM in the assay with DU-145, 13 µM in the assay with T47D and 18.8 µM in the assay with HCT-15. In addition, the inhibition in assay [1] was 70.5%; in assay [2], 6.4%; in assay [3], 0%.

For the compound `Oc1ccccc1-c1cc(-c2ccccc2C(F)(F)F)nc2c1Cc1c(O)cccc1-2`, the IC50 with HeLa worked out at 3.95 µM; in the assay with DU-145, 1.38 µM; in the assay with T47D, 3.02 µM; in the assay with HCT-15 it was 1.74 µM. Moreover, the inhibition came to 83.7% in assay [1], 1.8% in assay [2] and 3.5% in assay [3].

In the case of `Oc1ccc(-c2cc(-c3ccccc3Cl)nc3c2Cc2cccc(O)c2-3)cc1`, the IC50 was found to be 2.85 µM with HeLa, 0.19 µM in the assay with DU-145, 0.61 µM in the assay with T47D and 2.97 µM in the assay with HCT-15. In addition, the results for the inhibition in assay [1], in assay [2] and in assay [3] were 30.3%, 3.6% and 0%, respectively.

With `Oc1cccc(-c2cc(-c3ccc(Cl)cc3)c3c(n2)-c2cc(O)ccc2C3)c1`, the IC50 is above 50 µM in the assay with HeLa, 32.2 µM with DU-145, above 50 µM with T47D and above 50 µM in the assay on HCT-15. For the same compound, the inhibition in assay [1] was 80.4%; in assay [2] it was 12.4%; in assay [3], 7.3%.

As to `Oc1ccc(-c2cc(-c3cccc(Cl)c3)nc3c2Cc2c(O)cccc2-3)cc1`, the IC50 in the assay with HeLa turned out to be 3.56 µM; in the assay with DU-145, 0.22 µM; with T47D, 0.62 µM; with HCT-15 it was 1.84 µM. Moreover, the inhibition in assay [1] was found to be 72.8%; in assay [2], 36.9%; in assay [3] it was 1.2%.

With `Oc1cccc(-c2cc(-c3cccc(C(F)(F)F)c3)nc3c2Cc2cc(O)ccc2-3)c1`, the IC50 in the assay on HeLa was determined as 2.03 µM; in the assay with DU-145 it was 1.42 µM; in the assay with T47D it was 1.33 µM; in the assay with HCT-15, 2.22 µM. Further, the results for the inhibition in assay [1], in assay [2] and in assay [3] were 85.2%, 29% and 10.2%, respectively.

For the compound `Oc1ccc(-c2cc(-c3cccc(Cl)c3)nc3c2Cc2ccc(O)cc2-3)cc1`, the IC50 is above 50 µM in the assay with HeLa, 0.48 µM in the assay on DU-145, 0.6 µM in the assay with T47D and 2.36 µM in the assay on HCT-15. In addition, the inhibition in assay [1] was found to be 71.3%; in assay [2], 56.4%; in assay [3] it was 8.7%.

`Oc1ccc(-c2cc(-c3ccccc3C(F)(F)F)nc3c2Cc2c(O)cccc2-3)cc1`: the concentration for half-maximal inhibition (IC50) in the assay with HeLa was above 50 µM; in the assay on DU-145, 5.34 µM; in the assay with T47D, 2.66 µM; in the assay on HCT-15, 3.82 µM. Besides, the inhibition in assay [1] was determined as 30.1%; in assay [2], 0.6%; in assay [3], 7.1%.

`Oc1cccc(-c2cc(-c3ccccc3C(F)(F)F)nc3c2Cc2ccc(O)cc2-3)c1`: the IC50 amounted to 3.71 µM with HeLa, 1.83 µM in the assay on DU-145, 1.22 µM with T47D and 1.67 µM in the assay with HCT-15. The inhibition in assay [1] worked out at 79%; in assay [2], 3.1%; in assay [3], 1.8%.

Consider `Oc1ccc2c(c1)Cc1c(-c3ccccc3O)cc(-c3ccccc3)nc1-2`, for which the half-maximal inhibitory concentration (IC50) is 27.4 µM in the assay with HeLa, 1 µM in the assay with DU-145, 2.44 µM in the assay with T47D and 2.08 µM with HCT-15. Further, the values for the inhibition in assay [1], in assay [2] and in assay [3] were 74.8%, 0% and 8.2%, respectively.

Consider `Oc1cccc(-c2cc(-c3cccc(C(F)(F)F)c3)nc3c2Cc2ccc(O)cc2-3)c1`, for which the IC50 worked out at 4.7 µM with HeLa, 1.54 µM in the assay with DU-145, 1.33 µM in the assay with T47D and 8.61 µM in the assay on HCT-15. For the same compound, the inhibition was 90.7% in assay [1], 10.5% in assay [2] and 5.2% in assay [3].

For the compound `Oc1cccc(-c2cc(-c3ccccc3Cl)nc3c2Cc2cc(O)ccc2-3)c1`, the IC50 with HeLa is 0.91 µM; with DU-145 it was 0.81 µM; with T47D, 0.78 µM; in the assay on HCT-15 it was 0.00133 µM. Moreover, the inhibition in assay [1] came to 100%; in assay [2], 32.3%; in assay [3], 5.6%.
